Assay results published in article PMC12016938, “A small molecule PKCε inhibitor reduces hyperalgesia induced by paclitaxel or opioid withdrawal” (JCI Insight, 2025).
“And” between values parts separate entries of the source, which are not always exact repeats. Equal entries are not always repeated. Where two headings read alike, the source gives them in different places.

Legend:
[1] = Plasma protein binding, equilibrium dialysis (RED); type: in vitro ADME, human; conditions: for recovery at 4 h, 10 µM: Rapid Equilibrium Dialysis (RED) device
Experimental: Plasma protein binding. Binding of CP612 to human plasma proteins was measured by equilibrium dialysis using a Rapid Equilibrium Dialysis (RED) Device (Thermo Fisher Scientific). The device uses plates with wells preloaded with equilibrium dialysis membrane inserts, each of which includes 2 side-by-side chambers separated by a dialysis membrane. […] All compounds were tested in triplicate. […] A total of 200 μL of diluted test compound was then added to the plasma chambers of triplicate wells of a 48-sample RED plate (Thermo Fisher Scientific). In total, 400 μL of 0.1M PBS buffer were added to each buffer chamber. The plate was sealed with adhesive foil and incubated at 37°C with shaking for 4 hours, after which 30 μL were removed from each chamber and diluted with either 30 μL of plasma (for buffer chamber samples) or 30 μL of 0.1M PBS (for plasma chamber samples). Samples were extracted with 3 volumes of acetonitrile, centrifuged at 16,000g at 4°C for 10 minutes, and analyzed by LC-MS to calculate the amount of drug in each chamber. The percentage of free compound was calculated as the concentration in the buffer chamber/concentration in the plasma chamber × 100%. The percentage of protein-bound compound was calculated as 100% – the percentage of free compound.

PKCε = biological target: T1, PKCε (Homo sapiens, UniProt Q02156); assay: PKCε activity with increasing ATP and CP612 (ATP competition); type: biochemical; design: His; AVI; made in house; host or cells: Sf9 cells; conditions: for Kinase activity (% control): PKCε, log [CP612]
T1 sequence (Q02156 1-737): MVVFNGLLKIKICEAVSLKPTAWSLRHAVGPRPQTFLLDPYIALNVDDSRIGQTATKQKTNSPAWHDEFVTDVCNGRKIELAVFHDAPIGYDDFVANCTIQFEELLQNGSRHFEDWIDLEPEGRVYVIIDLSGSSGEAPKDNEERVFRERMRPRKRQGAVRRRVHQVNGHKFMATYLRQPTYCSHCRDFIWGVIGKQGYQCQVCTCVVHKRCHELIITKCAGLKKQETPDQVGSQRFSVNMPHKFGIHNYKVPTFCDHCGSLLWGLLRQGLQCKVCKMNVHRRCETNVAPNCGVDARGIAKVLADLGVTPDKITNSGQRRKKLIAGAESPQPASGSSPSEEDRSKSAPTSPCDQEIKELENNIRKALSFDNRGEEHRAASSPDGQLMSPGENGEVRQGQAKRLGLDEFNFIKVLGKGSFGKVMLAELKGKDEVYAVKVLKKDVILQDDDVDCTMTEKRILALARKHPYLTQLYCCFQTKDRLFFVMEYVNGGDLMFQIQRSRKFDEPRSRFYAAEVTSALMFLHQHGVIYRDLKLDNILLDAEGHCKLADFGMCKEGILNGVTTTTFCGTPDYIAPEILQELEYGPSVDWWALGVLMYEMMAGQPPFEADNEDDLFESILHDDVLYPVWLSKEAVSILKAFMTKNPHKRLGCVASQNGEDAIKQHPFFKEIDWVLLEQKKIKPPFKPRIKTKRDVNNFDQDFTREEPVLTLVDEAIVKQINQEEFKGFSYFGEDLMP
Experimental: Therefore, we assayed PKCε activity with increasing concentrations of ATP and in the presence of increasing concentrations of CP612.
Kinase assays. CP612 was assayed against His-AVI–tagged human PKCε (1 nM) produced in Sf9 cells, and ROCK1 (Carna Biosciences; 5 nM) using the Lance-FRET kinase assay system (PerkinElmer Revvity). Other human recombinant PKCs (SignalChem Biotech) were assayed in triplicate at the following concentrations: PKCβII 1.6 nM, PKCγ 500 pM, PKCδ 5 nM, PKCθ 500 pM, and PKCζ 500 pM. PKCs were incubated in a 15 μL reaction volume with kinase buffer (20 mM Tris-HCL [pH 7.4], 10 mM MgCl2, 0.25 mM EGTA, 0.1 mg/mL BSA, and 0.15% Triton X-100), 50 nM ULight-labeled CREBtide […] (PerkinElmer, TRF0107, Revvity), and test compound. […] after 60 minutes with 10 μL of 2.5× Stop Solution/Detection Mix containing 20 mM EDTA and 4 nM LANCE Ultra Europium anti–phospho-[…] peptide antibody (PerkinElmer, TRF0200, Revvity). After incubation at 27°C for another 60 minutes, phosphorylation was detected using a FlexStation 3 Microplate Reader (Molecular Devices) in LANCE TR-FRET mode (excitation = 340 nm, emission = 665 nm) and expressed as relative fluorescence units (RFU). The percentage of inhibition was calculated as: (signal without test compound − signal with test compound)/(signal without test compound − signal without ATP) × 100. The Z’ factor for this assay ranged between 0.72 and 0.86.

PKN2 = biological target: T2, PKN2 (Homo sapiens, UniProt Q16513); assay: scanMax kinome panel, PKN2; type: binding; conditions: 200 nM CP612
T2 construct: purchased Eurofins-DiscoverX
T2 sequence (Q16513 whole entry): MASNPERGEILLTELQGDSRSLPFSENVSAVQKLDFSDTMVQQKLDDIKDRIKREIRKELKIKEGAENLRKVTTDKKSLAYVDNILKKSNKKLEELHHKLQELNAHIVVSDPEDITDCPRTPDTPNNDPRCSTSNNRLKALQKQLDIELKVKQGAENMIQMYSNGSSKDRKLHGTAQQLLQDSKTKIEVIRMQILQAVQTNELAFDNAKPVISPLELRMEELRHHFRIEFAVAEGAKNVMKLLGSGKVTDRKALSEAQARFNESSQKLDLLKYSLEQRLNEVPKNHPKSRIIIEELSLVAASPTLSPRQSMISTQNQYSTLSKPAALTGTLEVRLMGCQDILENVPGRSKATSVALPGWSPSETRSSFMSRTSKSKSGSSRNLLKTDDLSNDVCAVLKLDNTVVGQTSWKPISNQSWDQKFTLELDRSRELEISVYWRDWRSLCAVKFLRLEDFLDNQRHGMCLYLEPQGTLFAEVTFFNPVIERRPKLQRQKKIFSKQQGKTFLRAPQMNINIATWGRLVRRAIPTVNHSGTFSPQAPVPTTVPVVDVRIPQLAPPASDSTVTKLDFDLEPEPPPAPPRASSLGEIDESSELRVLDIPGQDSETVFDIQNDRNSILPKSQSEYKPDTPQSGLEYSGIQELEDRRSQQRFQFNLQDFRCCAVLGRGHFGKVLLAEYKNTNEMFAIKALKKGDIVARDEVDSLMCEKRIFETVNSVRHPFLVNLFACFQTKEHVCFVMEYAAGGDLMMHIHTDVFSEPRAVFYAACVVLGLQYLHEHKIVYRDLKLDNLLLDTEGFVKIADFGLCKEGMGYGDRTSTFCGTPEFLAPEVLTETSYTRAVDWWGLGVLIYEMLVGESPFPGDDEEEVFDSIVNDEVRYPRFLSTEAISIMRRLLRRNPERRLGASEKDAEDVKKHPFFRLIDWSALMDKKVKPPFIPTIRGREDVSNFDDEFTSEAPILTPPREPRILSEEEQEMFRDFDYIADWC
Experimental: CP612 was screened for kinome specificity at 200 nM against 468 kinases using the scanMax assay panel from Eurofins-DiscoverX. CP612 inhibited 10 other WT kinases besides PKCε, all to < 10% of control: CLK1 (CDC Like Kinase 1), CLK4, PKN1 (Protein kinase N1), PKN2, PKCδ, PKCη, PKCθ, PRKG2 (Protein Kinase CGMP-Dependent 2), ROCK1, and ROCK2.

N[C@H](CNC(=O)C1(c2ccc(Cl)cc2)CCCC1)c1ccc(C(=O)Nc2ccncc2)cc1 [CP612]
% Free ([1]; (Corrected concentration in PBS / Corrected concentration in Plasma) * 100, individual replicates): 9.57% and 8.99% | % Recovery ([1]; PBS + Plasma relative to starting concentration of 10 uM, individual replicates): 52.74% and 59.65% | % Absolute (Sample_PBS) ([1]; PBS compartment, relative to starting concentration of 10 uM, individual replicates): 6.46% and 4.60% and 4.92% | fraction unbound at 4 h, 10 μM ([1]; human plasma, individual replicates, read-out: % Bound (converted)): 0.121 | fraction unbound at 4 h, 10 μM ([1]; human, human plasma, 37°C, 4 hours, read-out: Plasma protein binding (% bound) (converted)): 0.102 | recovery at 4 h, 10 µM ([1]; human, human plasma, PBS + Plasma relative to starting concentration of 10 uM, individual replicates, read-out: % Recovery): 59.9% | recovery at 4 h, 10 µM ([1]; human, human plasma, PBS + Plasma relative to starting concentration of 10 uM, mean of replicates, read-out: % Recovery, Mean): 57.4% | fraction unbound at 4 h, 10 μM ([1]; human, plasma, (Corrected concentration in PBS / Corrected concentration in Plasma) * 100, individual replicates, read-out: % Free): 0.121 | fraction unbound at 4 h, 10 μM ([1]; human, plasma, mean of replicates, read-out: % Bound, Mean (converted)): 0.102 | fraction unbound at 4 h, 10 μM ([1]; human, plasma, mean of replicates, read-out: % Free, Mean): 0.102 | % Bound ([1]; individual replicates): 90.43% and 91.01% | % Absolute (Sample_Plasma) ([1]; plasma compartment, relative to starting concentration of 10 uM, individual replicates): 53.46% and 48.13% and 54.72% | Increase of EC50 for ATP (PKCε; 300 nM CP612): 40 fold | Kinase activity (% control) (PKCε; [ATP] 0.183 µM, M -8.523, 0.183 µM): 47.534 % control and 24.462 % control and 35.552 % control | Kinase activity (% control) (PKCε; [ATP] 0.73 µM, M -6, 0.73 µM): 0.864 % control and 1.238 % control | Kinase activity (% control) (PKCε; [ATP] 2.93 µM, M -5.523, 2.93 µM): 0.280 % control and 0.321 % control | Kinase activity (% control) (PKCε; [ATP] 2.93 µM, M -6, 2.93 µM): 1.498 % control and 2.443 % control | Kinase activity (% control) (PKCε; [ATP] 2.93 µM, M -6.523, 2.93 µM): 4.077 % control and 4.559 % control | Kinase activity (% control) (PKCε; [ATP] 2.93 µM, M -7, 2.93 µM): 8.910 % control and 10.659 % control | Kinase activity (% control) (PKCε; [ATP] 2.93 µM, M -7.523, 2.93 µM): 20.262 % control and 21.135 % control | Kinase activity (% control) (PKCε; [ATP] 2.93 µM, M -8, 2.93 µM): 38.517 % control and 38.535 % control | Kinase activity (% control) (PKCε; [ATP] 2.93 µM, M -8.523, 2.93 µM): 63.294 % control and 62.615 % control | Kinase activity (% control) (PKCε; [ATP] 11.67 µM, M -6, 11.67 µM): 4.132 % control and 3.783 % control | Kinase activity (% control) (PKCε; [ATP] 11.67 µM, M -6.523, 11.67 µM): 10.586 % control and 9.278 % control | Kinase activity (% control) (PKCε; [ATP] 11.67 µM, M -7, 11.67 µM): 20.490 % control and 19.346 % control | Kinase activity (% control) (PKCε; [ATP] 11.67 µM, M -7.523, 11.67 µM): 38.625 % control and 36.759 % control | Kinase activity (% control) (PKCε; [ATP] 11.67 µM, M -8, 11.67 µM): 63.930 % control and 57.174 % control | Kinase activity (% control) (PKCε; [ATP] 11.67 µM, M -8.523, 11.67 µM): 75.246 % control and 100.913 % control and 75.385 % control | Kinase activity (% control) (PKCε; [ATP] 49 µM, M -6, 49 µM): 10.798 % control and 9.001 % control | Kinase activity (% control) (PKCε; [ATP] 49 µM, M -6.523, 49 µM): 25.250 % control and 20.067 % control | Kinase activity (% control) (PKCε; [ATP] 49 µM, M -7, 49 µM): 46.048 % control and 35.068 % control | Kinase activity (% control) (PKCε; [ATP] 49 µM, M -7.523, 49 µM): 52.594 % control and 73.832 % control and 56.661 % control | Kinase activity (% control) (PKCε; [ATP] 49 µM, M -8, 49 µM): 73.818 % control and 104.476 % control and 73.273 % control | Kinase activity (% control) (PKCε; [ATP] 49 µM, M -8.523, 49 µM): 102.193 % control and 87.045 % control | Kinase activity (% control) (PKCε; [ATP] 187 µM, M -6, 187 µM): 22.653 % control and 20.507 % control | Kinase activity (% control) (PKCε; [ATP] 187 µM, M -6.523, 187 µM): 46.882 % control and 37.693 % control | Kinase activity (% control) (PKCε; [ATP] 187 µM, M -7, 187 µM): 75.602 % control and 55.920 % control | Kinase activity (% control) (PKCε; [ATP] 187 µM, M -7.523, 187 µM): 95.087 % control and 100.001 % control and 71.937 % control | Kinase activity (% control) (PKCε; [ATP] 187 µM, M -8, 187 µM): 104.191 % control and 87.275 % control | Kinase activity (% control) (PKCε; [ATP] 187 µM, M -8.523, 187 µM): 106.161 % control and 97.914 % control | Kinase activity (% control) (PKCε; [ATP] 750 µM, M -5.523, 750 µM): 21.316 % control and 15.871 % control | Kinase activity (% control) (PKCε; [ATP] 750 µM, M -6, 750 µM): 49.150 % control and 51.871 % control | Kinase activity (% control) (PKCε; [ATP] 750 µM, M -6.523, 750 µM): 85.111 % control and 100.290 % control and 67.168 % control | Kinase activity (% control) (PKCε; [ATP] 750 µM, M -7, 750 µM): 106.868 % control and 86.984 % control | Kinase activity (% control) (PKCε; [ATP] 750 µM, M -7.523, 750 µM): 104.196 % control and 100.982 % control | Kinase activity (% control) (PKCε; [ATP] 750 µM, M -8, 750 µM): 105.985 % control and 104.633 % control | Kinase activity (% control) (PKCε; [ATP] 750 µM, M -8.523, 750 µM): 106.157 % control and 106.288 % control | Mode of inhibition of PKCε (PKCε; rightward shift at higher [ATP]): competing with ATP | scanMax % of control, PKN2 (PKN2): < 10 % of control
